Earlier results as cited in US20100310475A1, “Biocide Capsules, Preparation Comprising them and Sanitary Pad Comprising the Preparation” (DOLHAY KLINIKA EG[…]., priority 2007, published 2010).

System: pathogens
Settings: water solution

polyvinyl-pyrrolidone iodine [PVP-iodine]
most effective concentration-range: 0.01-1 % by weight
